Laboratory results as given in patent US11999727B2 (Tango Therapeutics, Inc., priority 2020, dated 2024).
Where two headings read alike, the source gives them in different places.

Assays:
[1] = tested on: HAP1 MTAP-deleted cell line; assay: Viability assay, MTAP-deleted cell line; type: cell-based; conditions: read-out: HAP1 MTAP deleted viability
From the text: Table 1 additionally indicates IC50 values in a viability assay for the MTAP-deleted cell line (column 10), indicating the effect of treatment with compound on cell survival.

PRMT5 [2] = target: T1, PRMT5 (Homo sapiens, UniProt O14744); assay: PRMT5 biochemical IC50 assay with SAM as cofactor; conditions: PRMT5, SAM as cofactor; read-out: SAM IC50
T1 construct: purchased Viva (custom protein)

[3] = tested on: HAP1 MTAP-intact cell line; assay: SDMA in-cell western assay, HAP1 MTAP-intact; type: cell-based; conditions: HAP1 MTAP-intact, read-out: MTAP HAP1 intact IC50
How it was run: (§1)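 Isogenic HAP1 pair: the MTAP-intact line expresses endogenous MTAP, and the deleted line is MTAP-null. Symmetric dimethylarginine was detected by in-cell western and IC50 values derived for each line.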

[4] = tested on: HAP1 MTAP-deleted cell line; assay: SDMA in-cell western assay, HAP1 MTAP-deleted; type: cell-based; conditions: for IC50: HAP1 MTAP-deleted
How it was run: as §1

PRMT5 [5] = target: T1, PRMT5; assay: PRMT5 biochemical IC50 assay with no cofactor; conditions: PRMT5, no cofactor
From the text: Table 1 indicates IC50 values (μM) against PRMT5 for exemplary compounds in the presence of SAM as cofactor, with no cofactor, and with MTA as cofactor, respectively (columns 4-6). […] Ki values can be calculated from the IC50 values as described in the Examples section. As detailed in the Examples section, for the assay performed in the presence of SAM, IC50=Ki×1.5 (Ki=IC50/1.5).

PRMT5 [6] = target: T1, PRMT5; assay: PRMT5 biochemical IC50 assay with MTA as cofactor; conditions: PRMT5, MTA as cofactor; read-out: MTA IC50
[7] = IC50 ratio HAP1 MTAP-intact / HAP1 MTAP-deleted, SDMA in-cell western
[8] = Homo sapiens, HAP1, SDMA in-cell western
[9] = Homo sapiens, HAP1, SDMA in-cell western, read-out: HAP 1 MTAP deleted IC50
[10] = Homo sapiens, HAP1, viability assay, MTAP-deleted cell line
[11] = Homo sapiens, HAP1, SDMA in-cell western, read-out: HAP1 MTAP deleted IC50
[12] = IC50 ratio HAP1 MTAP-intact vs HAP1 MTAP-deleted, SDMA in-cell western
[13] = Homo sapiens, HAP1, viability, HAP1 MTAP-deleted cell line
[14] = read-out: No Cofactor/ rel IC50

T1 sequence (O14744 whole entry): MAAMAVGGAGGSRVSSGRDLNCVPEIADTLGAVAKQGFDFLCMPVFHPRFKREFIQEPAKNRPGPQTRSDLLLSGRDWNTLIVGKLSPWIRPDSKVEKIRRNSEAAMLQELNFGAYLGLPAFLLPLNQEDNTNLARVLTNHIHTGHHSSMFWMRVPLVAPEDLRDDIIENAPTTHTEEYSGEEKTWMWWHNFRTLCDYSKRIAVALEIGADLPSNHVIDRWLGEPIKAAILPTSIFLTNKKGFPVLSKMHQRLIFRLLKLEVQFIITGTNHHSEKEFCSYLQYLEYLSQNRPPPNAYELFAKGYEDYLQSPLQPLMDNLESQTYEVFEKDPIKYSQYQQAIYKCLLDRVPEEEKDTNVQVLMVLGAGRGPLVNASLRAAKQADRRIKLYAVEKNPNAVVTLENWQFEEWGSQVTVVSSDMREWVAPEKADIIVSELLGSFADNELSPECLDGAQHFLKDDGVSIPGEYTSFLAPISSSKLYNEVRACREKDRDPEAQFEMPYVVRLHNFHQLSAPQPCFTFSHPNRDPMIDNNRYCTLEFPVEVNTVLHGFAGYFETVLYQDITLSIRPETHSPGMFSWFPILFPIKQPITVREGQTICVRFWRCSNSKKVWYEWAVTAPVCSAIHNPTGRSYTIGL
T1 sequence (Q9BQA1 whole entry partner): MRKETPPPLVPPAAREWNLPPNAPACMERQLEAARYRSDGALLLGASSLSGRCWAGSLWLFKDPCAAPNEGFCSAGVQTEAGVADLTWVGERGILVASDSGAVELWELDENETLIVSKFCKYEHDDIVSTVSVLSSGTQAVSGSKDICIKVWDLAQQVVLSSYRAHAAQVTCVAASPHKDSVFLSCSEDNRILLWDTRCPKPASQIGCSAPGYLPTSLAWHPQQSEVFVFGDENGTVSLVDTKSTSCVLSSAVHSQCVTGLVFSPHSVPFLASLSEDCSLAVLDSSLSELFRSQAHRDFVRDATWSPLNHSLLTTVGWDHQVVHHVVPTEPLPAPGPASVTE

| SMILES | IC50 ([1]; viability assay, HAP1 MTAP-deleted) [nM] | IC50 (PRMT5 [2]) [nM] | IC50 ([3]; SDMA in-cell western) [nM] | MTAP intact/deleted ratio [4, 7] | IC50 ([4]; SDMA in-cell western, read-out: HAP1 MTAP deleted IC50) [nM] | IC50 (PRMT5 [5]; read-out: No Cofactor/rel IC50) [nM] | IC50 (PRMT5 [6]) [nM] | IC50 ([1]; Homo sapiens, HAP1, viability IC50, MTAP-deleted cell line) [nM] | IC50 [3, 8] [nM] | IC50 [4, 9] [nM] | IC50 [1, 10] [nM] | IC50 [4, 11] [nM] | MTAP intact/deleted ratio [4, 12] | IC50 [1, 13] [nM] | IC50 (PRMT5 [5]; [14]) [nM] | IC50 ([1]; Homo sapiens, HAP1, viability assay, HAP1 MTAP-deleted) [nM] |
| --- | --- | --- | --- | --- | --- | --- | --- | --- | --- | --- | --- | --- | --- | --- | --- | --- |
| [H][C@@]1([C@]2([H])C[C@]3(C[C@H](O)C3)C2)CC[C@@H](C)CN1C(=O)C(=O)Nc1cnc(N)c(C)c1 (single isomer, unassigned) [Compound 769] | > 10000 | > 500 | > 1000 | C (an IC50 ratio of less than 3 fold) | > 1000 | > 500 | > 500 | – | – | – | – | – | – | – | – | – |
| Cc1cncc(NC(=O)C(=O)N2C[C@H](C)CC[C@H]2c2ccc(O)cc2)c1 (racemic) [Compound 557, rac-2-((2R,5S)-2-(4-hydroxyphenyl)-5-methylpiperidin-1-yl)-N-(5-methylpyridin-3-yl)-2-oxoacetamide] | – | 50 to 500 | – | A (an IC50 ratio greater than or equal to 10 fold) | – | 50 to 500 | 50 to 500 | > 10000 | > 1000 | 100 to 1000 | – | – | – | – | – | – |
| COc1ncc(NC(=O)C(=O)N2C[C@@H](C)CC[C@@H]2c2ccc3sc(C4(CN(C)C)COC4)nc3c2)cc1C(N)=O [Compound 1155, 5-(2-((2R,5S)-2-(2-(3-((dimethylamino)methyl)oxetan-3-yl)benzo[d]thiazol-5-yl)-5-methylpiperidin-1-yl)-2-oxoacetamido)-2-methoxynicotinamide] | – | < 50 | – | – | – | < 50 | < 50 | – | 100 to 1000 | – | < 1000 | < 100 | A (an IC50 ratio greater than or equal to 10 fold) | – | – | – |
| CCc1cc(NC(=O)C(=O)N2C[C@@H](C)CC[C@@H]2c2ccc3c(c2)C(=O)N(C2CCN(C)CC2)C3)cnc1N (racemic) [Compound 1272, N-(6-amino-5-ethyl-3-pyridyl)-2-oxo-2-[rac-(2R,5S)-5-methyl-2-[2-(1-methyl-4-piperidyl)-3-oxo-isoindolin-5-yl]-1-piperidyl]acetamide] | – | 50 to 500 | – | A (an IC50 ratio greater than or equal to 10 fold) | – | – | < 50 | – | 100 to 1000 | < 100 | – | – | – | < 1000 | < 50 | – |
| Cc1cc(NC(=O)C(=O)N2CCCC[C@H]2c2ccccc2)cnc1N (single isomer, unassigned) [Compound 55] | – | > 500 | – | C (an IC50 ratio of less than 3 fold) | – | – | 50 to 500 | – | > 1000 | > 1000 | > 10000 | – | – | – | > 500 | – |
| CNc1cccc([C@@H]2CCCCN2C(=O)C(=O)Nc2cnc(N)c(C)c2)c1 (single isomer, unassigned) [Compound 357] | – | 50 to 500 | – | A (an IC50 ratio greater than or equal to 10 fold) | – | > 500 | 50 to 500 | – | > 1000 | – | > 10000 | 100 to 1000 | – | – | – | – |
| CCc1cc(NC(=O)C(=O)N2C[C@@H](C)CC[C@@H]2c2ccc(N)nc2)cnc1N (single isomer, unassigned) [Compound 851] | – | 50 to 500 | – | A (an IC50 ratio greater than or equal to 10 fold) | – | < 50 | < 50 | – | 100 to 1000 | – | – | < 100 | – | – | – | < 1000 |
| C[C@H]1CC[C@H](c2ccc3sc(C(F)(F)F)nc3c2)N(C(=O)C(=O)Nc2cncc(C(N)=O)c2)C1 (single isomer, unassigned) [Compound 1023] | – | 50 to 500 | – | A (an IC50 ratio greater than or equal to 10 fold) | – | < 50 | < 50 | – | 100 to 1000 | < 100 | < 1000 | – | – | – | – | – |
| CCc1cc(NC(=O)C(=O)N2C[C@H](C)CC[C@H]2c2ccc(NC(C)=O)cc2)cnc1N (single isomer, unassigned) [Compound 893] | – | > 500 | – | B (an IC50 ratio greater than or equal to 3 fold but lower than 10 fold) | – | > 500 | > 500 | – | > 1000 | > 1000 | > 10000 | – | – | – | – | – |
| C[C@@H]1CC[C@@H](C2CCC2)N(C(=O)C(=O)Nc2cncc(C(N)=O)c2)C1 (racemic) [Compound 155, 5-[[2-[(2R,5S)-2-cyclobutyl-5-methyl-1-piperidyl]-2-oxo-acetyl]amino]pyridine-3-carboxamide] | – | 50 to 500 | – | A (an IC50 ratio greater than or equal to 10 fold) | – | – | < 50 | – | > 1000 | 100 to 1000 | > 10000 | – | – | – | 50 to 500 | – |
| C[C@@H]1CC[C@@H](c2cc(Cl)cc(Cl)c2)N(C(=O)C(=O)Nc2cncc(C(N)=O)c2)C1 (racemic) [Compound 206, rac-5-{2-[(2R,5S)-2-(3,5-Dichlorophenyl)-5-methylpiperidin-1-yl]-2-oxoacetamido}pyridine-3-carboxamide] | – | 50 to 500 | – | A (an IC50 ratio greater than or equal to 10 fold) | – | 50 to 500 | < 50 | – | > 1000 | – | 1000 to 10000 | 100 to 1000 | – | – | – | – |
| C[C@H]1CC[C@H](c2ccc(F)cc2)N(C(=O)C(=O)Nc2cnc(N)c(OC(F)F)c2)C1 [Compound 1026, N-[6-amino-5-(difluoromethoxy)-3-pyridyl]-2-[(2R,5S)-2-(4-fluorophenyl)-5-methyl-1-piperidyl]-2-oxo-acetamide] | – | 50 to 500 | – | A (an IC50 ratio greater than or equal to 10 fold) | – | 50 to 500 | < 50 | – | > 1000 | 100 to 1000 | 1000 to 10000 | – | – | – | – | – |
| CCc1cc(NC(=O)C(=O)N2C[C@@H](C)CC[C@@H]2c2ccc3sc(CCN4CCOCC4)nc3c2)cnc1N [Compound 1248, N-(6-amino-5-ethylpyridin-3-yl)-2-((2R,5S)-5-methyl-2-(2-(2-morpholinoethyl)benzo[d]thiazol-5-yl)piperidin-1-yl)-2-oxoacetamide] | – | < 50 | – | A (an IC50 ratio greater than or equal to 10 fold) | – | – | < 50 | – | 100 to 1000 | < 100 | – | – | – | < 1000 | < 50 | – |
| Cc1cc(C)cc([C@@H]2CC[C@@H](C)CN2C(=O)C(=O)Nc2cncc(C(N)=O)c2)c1 (racemic) [Compound 118, rac-5-{2-[(2R,5S)-2-(3,5-dimethylphenyl)-5-methylpiperidin-1-yl]-2-oxoacetamido}pyridine-3-carboxamide] | – | 50 to 500 | – | A (an IC50 ratio greater than or equal to 10 fold) | – | – | < 50 | – | > 1000 | 100 to 1000 | > 10000 | – | – | – | > 500 | – |
| COc1ncc(NC(=O)C(=O)N2C[C@@H](C)CC[C@@H]2c2ccc3sc(C4CCN(C5CC5)CC4)nc3c2)cc1C(N)=O [Compound 1219, 5-(2-((2R,5S)-2-(2-(1-cyclopropylpiperidin-4-yl)benzo[d]thiazol-5-yl)-5-methylpiperidin-1-yl)-2-oxoacetamido)-2-methoxynicotinamide] | – | 50 to 500 | – | – | – | < 50 | < 50 | – | < 100 | – | < 1000 | < 100 | A (an IC50 ratio greater than or equal to 10 fold) | – | – | – |
| C[C@@H]1CN(C(=O)C(=O)Nc2cncc(C(N)=O)c2)[C@@H](c2ccccc2)C[C@@H]1O (racemic) [Compound 470, rac-5-[[2-[(2R,4S,5R)-4-hydroxy-5-methyl-2-phenyl-1-piperidyl]-2-oxo-acetyl]amino]pyridine-3-carboxamide] | – | 50 to 500 | – | A (an IC50 ratio greater than or equal to 10 fold) | – | 50 to 500 | 50 to 500 | – | > 1000 | – | > 10000 | 100 to 1000 | – | – | – | – |
| CC[C@@H]1CCN(C(=O)C(=O)Nc2cncc(C(N)=O)c2)[C@H](c2ccccc2)C1 (racemic) [Compound 497, rac-5-[[2-[(2S,4R)-4-ethyl-2-phenyl-1-piperidyl]-2-oxo-acetyl]amino]pyridine-3-carboxamide] | – | 50 to 500 | – | A (an IC50 ratio greater than or equal to 10 fold) | – | 50 to 500 | < 50 | – | > 1000 | – | 1000 to 10000 | 100 to 1000 | – | – | – | – |
